Test results from patent US7183075B2, “Purified and isolated potassium-chloride cotransporter nucleic acids and polypeptides and therapeutic and screening methods using same” (Vanderbilt University, priority 2000, dated 2007).
Where two headings read alike, the source gives them in different places.

Biological target: T1, rabKCC1 (Oryctolagus cuniculus, UniProt Q28677)
T1 construct: a full-length rabbit KCC1 cDNA was subcloned into pGEMHE; expressed in transfected cells; host or cells: Xenopus laevis oocytes injected with cRNA
T1 sequence (Q28677 1-1085): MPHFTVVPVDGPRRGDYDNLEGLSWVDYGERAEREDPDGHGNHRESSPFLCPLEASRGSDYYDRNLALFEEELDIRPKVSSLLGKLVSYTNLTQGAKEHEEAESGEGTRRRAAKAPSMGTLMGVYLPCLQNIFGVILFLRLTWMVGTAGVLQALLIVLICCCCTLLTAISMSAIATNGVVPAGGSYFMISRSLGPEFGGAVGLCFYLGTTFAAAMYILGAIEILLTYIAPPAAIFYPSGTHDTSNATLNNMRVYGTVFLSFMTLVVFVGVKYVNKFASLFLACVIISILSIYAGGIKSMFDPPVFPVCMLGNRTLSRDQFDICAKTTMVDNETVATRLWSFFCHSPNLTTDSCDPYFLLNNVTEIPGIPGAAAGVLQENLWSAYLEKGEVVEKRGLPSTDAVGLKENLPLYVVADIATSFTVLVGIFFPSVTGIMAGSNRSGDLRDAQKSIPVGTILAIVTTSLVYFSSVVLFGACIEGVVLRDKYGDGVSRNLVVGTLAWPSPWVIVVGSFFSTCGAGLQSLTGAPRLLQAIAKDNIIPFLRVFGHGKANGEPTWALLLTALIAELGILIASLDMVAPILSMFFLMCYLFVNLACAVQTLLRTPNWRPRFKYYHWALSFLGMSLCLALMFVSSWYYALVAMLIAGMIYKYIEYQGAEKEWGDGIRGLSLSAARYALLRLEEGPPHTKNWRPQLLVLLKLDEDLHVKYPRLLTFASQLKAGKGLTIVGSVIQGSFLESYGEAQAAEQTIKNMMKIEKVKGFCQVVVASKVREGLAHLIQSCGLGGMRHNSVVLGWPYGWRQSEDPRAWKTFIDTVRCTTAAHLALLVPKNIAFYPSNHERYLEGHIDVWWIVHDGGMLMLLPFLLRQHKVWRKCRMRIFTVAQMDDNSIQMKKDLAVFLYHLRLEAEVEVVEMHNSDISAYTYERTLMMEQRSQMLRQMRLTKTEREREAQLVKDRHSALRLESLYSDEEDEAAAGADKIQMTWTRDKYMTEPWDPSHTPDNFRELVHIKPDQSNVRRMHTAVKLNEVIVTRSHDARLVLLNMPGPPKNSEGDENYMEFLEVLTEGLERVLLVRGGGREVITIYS
Assay: 86Rb+ uptake (K+-Cl- cotransport) in Xenopus oocytes injected with rabKCC1 cRNA
Format: cell-based, rabbit
Settings: for KCC1 function remaining: 100 μM DIDS; for KCC1 function (86Rb+ uptake, % of control): 2 mM diuretic; for effect on activation of KCC1 by cell swelling: calyculin A 100 nM, okadaic acid 1 nM, cypermethrin 100 pM
Description: On the next day, defolliculated stage V–VI oocytes were injected with 50 nl of water or a solution containing cRNA at a concentration of 0.25–0.5 μg/μl (25 ng/oocyte). […] The incubation medium was changed every 24 hours.
For functional comparison with mKCC4, a full-length rabbit KCC1 cDNA was subcloned into pGEMHE. […] To prepare a template for cRNA, the rabbit KCC1 and […] cDNAs were linearized at the 3′-end using NheI, and cRNA was transcribed in vitro using the T7 RNA polymerase and the mMESSAGE mMACHINE kit (Ambion, Inc. of Austin, Tex.). Transcription product integrity was confirmed on agarose gels, and concentration was determined by absorbance reading at 260 nm (DU 640 available from Beckman of Fullerton, Calif.).
K^+—Cl^− cotransport was assessed by measuring tracer ^86Rb^+ uptake (NEN® Life Science Products of Boston, Mass.) in experimental groups of at least 15 oocytes. […] Isotonic conditions were generated by supplementing the same solutions with 3.5 g/100 ml sucrose to reach isosmolar conditions for oocytes (˜210 mOsm/kg). Ouabain was added to prevent ^86Rb^+ uptake via the Na^+—K^+-ATPase.
All uptake assays were performed at 32° C. At the end of the uptake period, oocytes were washed five times in ice-cold uptake solution without isotope to remove extracellular fluid tracer. Oocytes were dissolved in 10% SDS, and tracer activity was determined for each oocyte by β-scintillation counting.
To determine the ion transport kinetics of KCC4 and KCC1, ^86Rb^+ uptake experiments were performed in variable concentrations of K^+ and Cl^−. The sensitivity for several inhibitors was assessed by exposing groups of oocytes to the inhibitors at concentrations varying from […] to 2 mM. For these experiments, the desired concentration of the inhibitor was present during both the incubation and uptake periods, except when noted.

[1] = KCC1, counterion fixed at 50 mM, hypotonic
[2] = KCC1, counterion fixed at 50 mM, hypotonic, read-out: apparent Km for extracellular ion
[3] = 2 mM extracellular K+, hypotonic
[4] = 50 mM extracellular K+, hypotonic

[Ba+2].[Cl-].[Cl-] [BaCl2]
KCC1 function, % of control (10 mM BaCl2 in hypotonic uptake medium): 79±4.2%

Cl [Chloride]
Hill coefficient (KCC1): 1.3±0.5
apparent Vmax for extracellular ion [1]: 14,930±2,822 pmol×oocyte^−1×hour^−1
Km [2]: 17.2 ± 8.3 mM
Km (KCC1, read-out: Chloride Km): 17.2 mM

O=S(=O)(O)c1cc(N=C=S)ccc1C=Cc1ccc(N=C=S)cc1S(=O)(=O)O [DIDS]
KCC1 function remaining [3]: 85±6%
KCC1 function remaining [4]: 13±2%

CCCCC1(C2CCCC2)Cc2cc(OCC(=O)O)c(Cl)c(Cl)c2C1=O (centres unmarked) [DIOA]
effect on KCC1-induced 86Rb+ uptake (100 μM DIOA, hypotonic): inhibition

CCN1C(=O)C=CC1=O [NEM, N-ethylmaleimide]
reduction of KCC1-induced 86Rb+ uptake (1 mM NEM, hypotonic): 55%
fold activation of KCC1 (1 mM NEM, isotonic): 2.6 fold
86Rb+ uptake in NEM-treated group (KCC1, 1 mM NEM, isotonic): 319±76 pmol×oocyte^−1×hour^−1

[K+] [Potassium]
Hill coefficient (KCC1): 1.04±0.13
apparent Vmax for extracellular ion [1]: 39,540±2,199 pmol×oocyte^−1×hour^−1
Km [2]: 25.5 ± 3.2 mM
Km (KCC1, read-out: Potassium Km): 25.5 mM

CCCCNc1cc(C(=O)O)cc(S(N)(=O)=O)c1Oc1ccccc1 [bumetanide]
KCC1 function (86Rb+ uptake, % of control) [3]: 51±12%
KCC1 function (86Rb+ uptake, % of control) [4]: 19±7%
IC50 (KCC1, 10 mM extracellular K+, read-out: apparent half-maximal inhibition (K=0.5) of Cl−-dependent 86Rb+ uptake): ~180 µM

COC[C@@H]([C@H](O)[C@H](O)C(=O)NCC[C@H](C)c1nc(/C=C/C[C@@H]2O[C@]3(C[C@@H](O)[C@@H]2C)O[C@H]([C@H](C[C@H](O)[C@H](C)[C@H](O)[C@H](C)/C=C(C)/C(C)=C/C=C/C(C)=C\C#N)OC)[C@H](OP(=O)(O)O)C3(C)C)co1)N(C)C [calyculin A]
effect on activation of KCC1 by cell swelling (hypotonic): completely prevents the activation

CC1(C)C(C=C(Cl)Cl)C1C(=O)OC(C#N)c1cccc(Oc2ccccc2)c1 (centres unmarked) [cypermethrin]
effect on activation of KCC1 by cell swelling (hypotonic): neither okadaic acid, nor cypermethrin prevented this activation

NS(=O)(=O)c1cc(C(=O)O)c(NCc2ccco2)cc1Cl [furosemide]
KCC1 function (86Rb+ uptake, % of control) [3]: 9±2%
KCC1 function (86Rb+ uptake, % of control) [4]: 18±8%

C=C1[C@@H](O)[C@@H]2O[C@]3(CC[C@H](/C=C/[C@@H](C)[C@@H]4CC(C)=C[C@@]5(O[C@H](C[C@@](C)(O)C(=O)O)CC[C@H]5O)O4)O3)CC[C@H]2O[C@@H]1[C@@H](O)C[C@H](C)[C@H]1O[C@@]2(CCCCO2)CC[C@H]1C [okadaic acid]
effect on activation of KCC1 by cell swelling (hypotonic): neither okadaic acid, nor cypermethrin prevented this activation

NS(=O)(=O)c1cc2c(cc1Cl)NC(C(Cl)Cl)NS2(=O)=O (centres unmarked) [trichlormethiazide]
KCC1 function (86Rb+ uptake, % of control) [3]: 64±4%
KCC1 function (86Rb+ uptake, % of control) [4]: 74±8%

HgCl2 [Hg—Cl2]
response of KCC1 to mercury (50 μM HgCl2, hypotonic): resistant
